Source: US20230287003A1, “BCL6 INHIBITORS” (Cancer Research Technology Limited, priority 2018, published 2023)

Target: human BCL6 BTB domain (Trx-6×His-BCL6) / BCOR-AF633 peptide (Homo sapiens (Human), UniProt P41182)
Assay: HTRF assay
Assay type: binding
Settings: 1 nM Trx-6×His-BCL6, 300 nM BCOR-AF633 peptide, 2 hours incubation
Method: The % inhibition at each concentration was calculated by normalising FRET ratio to the appropriate high (DMSO with all reagents) and low (DMSO without BCL6) controls.

Row | Compound | HTRF avg pIC50 (1 nM)
1 | CN1CC2(C1)CN(c1ncc(Cl)c(Nc3ccc4c(c3)c3c(c(=O)n4C)OCC(F)(F)[C@H](C4CC4)N3)n1)C2 [Example 13g, (S)-10-((5-chloro-2-(6-methyl-2,6-diazaspiro[3.3]heptan-2-yl)pyrimidin-4-yl)amino)-2-cyclopropyl-3,3-difluoro-7-methyl-1,2,3,4-tetrahydro-[1,4]oxazepino[2,3-c]quinolin-6(7H)-one: formic acid (1:2)] | 8.50
2 | CN1CCN(c2ncc(F)c(Nc3ccc4c(c3)c3c(c(=O)n4C)OCC(F)(F)[C@H](C4CC4)N3)n2)CC1=O [Example 13i, (S)-2-cyclopropyl-3,3-difluoro-10-((5-fluoro-2-(4-methyl-3-oxopiperazin-1-yl)pyrimidin-4-yl)amino)-7-methyl-1,2,3,4-tetrahydro-[1,4]oxazepino[2,3-c]quinolin-6(7H)-one] | 8.45
3 | Cn1c(=O)c2c(c3cc(Nc4ccnc(Cl)c4C#N)ccc31)NC(C1CC1)CO2 (centres unmarked) [Example 1m, 2-chloro-4((2-cyclopropyl-6-methyl-5-oxo-2,3,5,6-tetrahydro-1H-[1,4]oxazino[2,3-c]quinolin-9-yl)amino)nicotinonitrile] | 6.20
4 | C[C@H]1COC(=O)c2c(c3cc(Nc4ccnc(Cl)c4C#N)ccc3n(C)c2=O)N1 [Example 6a, (S)-2-chloro-4-((2,7-dimethyl-5,6-dioxo-1,2,3,5,6,7-hexahydro-[1,4]oxazepino[6,5-c]quinolin-10-yl)amino)nicotinonitrile] | 7.01
5 | C[C@H]1COC(=O)c2c(c3cc(Nc4nc(N5CCC6(CCCN(C)C6=O)CC5)ncc4Cl)ccc3n(C)c2=O)N1 [Example 8e, (S)-10-((5-chloro-2-(2-methyl-1-oxo-2,9-diazaspiro[5.5]undecan-9-yl)pyrimidin-4-yl)amino)-2,7-dimethyl-2,3-dihydro-[1,4]oxazepino[6,5-c]quinoline-5,6(1H,7H)-dione] | 6.69
6 | (R)-10-((5-chloro-2-((R)-4,4-difluoro-3- hydroxypiperidin-1-yl)pyrimidin-4-yl)amino)-2-cyclopropyl-7- methyl-1,2,3,4-tetrahydro-[1,4]oxazepino[2,3-c]quinolin-6(7H)- one or (R)-10-((5-chloro-2((S)-4,4-difluoro-3-hydroxypiperidin-1- yl)pyrimidin-4-yl)amino)-2-cyclopropyl-7-methyl-1,2,3,4- tetrahydro-[1,4]oxazepino[2,3-c]quinolin-6(7H)-one [Example 12y] | 7.73
7 | CC1CCc2c(c3cc(Nc4ccnc(Cl)c4C#N)ccc3n(C)c2=O)N1 (centres unmarked) [Example 10a, 2-chloro-4-((2,6-dimethyl-5-oxo-1,2,3,4,5,6-hexahydrobenzo[h][1,6]-naphthyridin-9-yl)amino)nicotinonitrile] | 5.84
8 | Cn1c(=O)c2c(c3cc(Nc4ccncc4Cl)ccc31)N[C@@H](C1CC1)C(F)(F)CO2 [Example 4d, (S)-10-((3-chloropyridin-4-yl)amino)-2-cyclopropyl-3,3-difluoro-7-methyl-1,2,3,4-tetrahydro-[1,4]oxazepino[2,3-c] quinolin-6(7H)-one] | 7.99
9 | C[C@@H]1CN(c2ncc(Cl)c(Nc3ccc4c(c3)c3c(c(=O)n4C)OCC(F)(F)[C@H](C4CC4)N3)n2)C[C@H](C)C1(F)F [Example 12o, (S)-10-((5-chloro-2-((3S,5R)-4,4-difluoro-3,5-dimethylpiperidin-1-yl)pyrimidin-4-yl)amino)-2-cyclopropyl-3,3-difluoro-7-methyl-1,2,3,4-tetrahydro-[1,4]oxazepino[2,3-c]quinolin-6(7H)-one] | 7.74
10 | Cn1c(=O)c2c(c3cc(Nc4nc(N5C6CCCC5CC6)ncc4Cl)ccc31)N[C@@H](C1CC1)COC2=O [Example 8j, (2S)-10-((2-(8-azabicyclo[3.2.1]octan-8-yl)-5-chloropyrimidin-4-yl)amino)-2-cyclopropyl-7-methyl-2,3-dihydro-[1,4]oxazepino[6,5-c]quinoline-5,6(1H,7H)-dione] | 6.65
11 | C[C@H]1COC(=O)c2c(c3cc(Nc4nc(N5CCCC5=O)ncc4Cl)ccc3n(C)c2=O)N1 [Example 8i, (S)-10-((5-chloro-2-(2-oxopyrrolidin-1-yl)pyrimidin-4-yl)amino)-2,7-dimethyl-2,3-dihydro-[1,4]oxazepino[6,5-c]quinoline-5,6(1H,7H)-dione] | 6.23
12 | C[C@H]1CCOc2c(c3cc(Nc4cc(C(=O)O)nc(Cl)c4C#N)ccc3n(C)c2=O)N1 [Example 2a, (S)-6-chloro-5-cyano-4-((2,7-dimethyl-6-oxo-1,2,3,4,6,7-hexahydro-[1,4]ox-azepino[2,3-c]quinolin-10-yl)amino)picolinic acid] | 7.26
13 | C[C@H]1CN(c2ncc(Cl)c(Nc3ccc4c(c3)c3c(c(=O)n4C)OCC[C@H](C4CC4)N3)n2)CCC1(F)F (single isomer, unassigned) [Example 14a, (R)-10-((5-chloro-2-((S)-4,4-difluoro-3-methylpiperidin-1-yl)pyrimidin-4-yl)amino)-2-cyclopropyl-7-methyl-1,2,3,4-tetrahydro-[1,4]oxazepino[2,3-c]quinolin-6(7H)-one or (R)-10-((5-chloro-2-((R)-4,4-difluoro-3-methylpiperidin-1-yl)pyrimidin-4-yl)amino)-2-cyclopropyl-7-methyl-1,2,3,4-tetrahydro-[1,4]oxazepino[2,3-c]quinolin-6(7M)-one] | 6.74
14 | (R)-10-((5-chloro-2-((R)-4,4-difluoro-3- (hydroxymethyl)piperidin-1-yl)pyrimidin-4-yl)amino)-2- cyclopropyl-7-methyl-1,2,3,4-tetrahydro- [1,4]oxazepino[2,3-c]quinolin-6(7H)-one or (R)-10-((5-chloro- 2-((S)-4,4-difluoro-3-(hydroxymethyl)piperidin-1-yl)pyrimidin- 4-yl)amino)-2-cyclopropyl-7-methyl-1,2,3,4-tetrahydro- [1,4]oxazepino[2,3-c]quinolin-6(7H)-one [Example 15b] | 7.51
15 | C[C@@H]1CN(c2ncc(Cl)c(Nc3ccc4c(c3)c3c(c(=O)n4C)C(=O)OC[C@H](C4CC4)N3)n2)C[C@H](C)C1(F)F [Example 8k, (S)-10-((5-chloro-2-((3S,5R)-4,4-difluoro-3,5-dimethylpiperidin-1-yl)pyrimidin-4-yl)amino)-2-cyclopropyl-7-methyl-2,3-dihydro-[1,4]oxazepino[6,5-c]quinoline-5,6(1H,7H)-dione] | 6.38
16 | Cn1c(=O)c2c(c3cc(Nc4nc(-n5ccc(C(F)(F)F)n5)ncc4Cl)ccc31)NC1(CCOC1)CCO2 (centres unmarked) [Example 5j, 10′-((5-chloro-2-(3-(trifluoromethyl)-1H-pyrazol-1-yl)pyrimidin-4-yl)amino)-7′-methyl-3′,4,4′,5-tetrahydro-1′H,2H-spiro[furan-3,2′-[1,4]oxazepino[2,3-c]quinolin]-6′(7′H)-one] | 5.79
17 | C[C@@H]1CN(c2ncc(Cl)c(Nc3ccc4c(c3)c3c(c(=O)n4C)OCC(F)(F)[C@H](C4CC4)N3)n2)CCO1 [Example 12s, (S)-10-((5-chloro-2-((R)-2-methylmorpholino)pyrimidin-4-yl)amino)-2-cyclopropyl-3,3-difluoro-7-methyl-1,2,3,4-tetrahydro-[1,4]oxazepino[2,3-c]quinolin-6(7H)-one] | 8.47
18 | (R)-10-((5-chloro-2-((R)-4,4-difluoro-3- methylpiperidin-1-yl)pyrimidin-4-yl)amino)-2-cyclopropyl-7- methyl-1,2,3,4-tetrahydro-[1,4]oxazepino[2,3-c]quinolin- 6(7H)-one or (R)-10-((5-chloro-2-((S)-4,4-difluoro-3- methylpiperidin-1-yl)pyrimidin-4-yl)amino)-2-cyclopropyl- 7-methyl-1,2,3,4-tetrahydro-[1,4]oxazepino[2,3-c]quinolin- 6(7H)-one [Example 14b] | 6.98
19 | C[C@@H]1CN(c2ncc(Cl)c(Nc3ccc4c(c3)c3c(c(=O)n4CCO)OCC[C@H](C4CC4)N3)n2)C[C@H](C)C1(F)F [Example 16a, (R)-10-((5-chloro-2-((3S,5R)-4,4-difluoro-3,5-dimethylpiperidin-1-yl)pyrimidin-4-yl)amino)-2-cyclopropyl-7-(2-hydroxyethyl)-1,2,3,4-tetrahydro-[1,4]oxazepino[2,3-c]quinolin-6(7H)-one] | 7.17
20 | (S)-10-((5-chloro-2-((3S,5R)-3-hydroxy-5- methylpiperidin-1-yl)pyrimidin-4-yl)amino)-2,7-dimethyl-1,2,3,4- tetrahydro-[1,4]oxazepino[2,3-c]quinolin-6(7H)-one or (S)-10-((5- chloro-2-((3R,5S)-3-hydroxy-5-methylpiperidin-1-yl)pyrimidin-4- yl)amino)-2,7-dimethyl-1,2,3,4-tetrahydro- [1,4]oxazepino[2,3-c]quinolin-6(7H)-one [Example 12l] | 6.99
21 | C[C@H]1CN(c2ncc(Cl)c(Nc3ccc4c(c3)c3c(c(=O)n4C)OCC(F)(F)[C@H](C4CC4)N3)n2)CCO1 [Example 12t, (S)-10-((5-chloro-2-((S)-2-methylmorpholino)pyrimidin-4-yl)amino)-2-cyclopropyl-3,3-difluoro-7-methyl-1,2,3,4-tetrahydro-[1,4]oxazepino[2,3-c]quinolin-6(7H)-one] | 8.46
22 | C[C@@H]1CN(c2ncc(Cl)c(Nc3ccc4c(c3)c3c(c(=O)n4C)C(=O)OC[C@H](C4CC4)N3)n2)C[C@H](C)O1 [Example 8n, (S)-10-((5-chloro-2-((2S,6R)-2,6-dimethylmorpholino)pyrimidin-4-yl)amino)-2-cyclopropyl-7-methyl-2,3-dihydro-[1,4]oxazepino[6,5-c]quinoline-5,6(1H,7H)-dione] | 6.19

Same assay, conditions: read-out: IC50 in the HTRF assay

Row | Compound | IC50 [µM]
23 | COc1cnc(N2C[C@@H](C)C(F)(F)[C@@H](C)C2)nc1Nc1ccc2c(c1)c1c(c(=O)n2C)OCC[C@H](C2CC2)N1 [(R)-2-cyclopropyl-10-((2-((3S,5R)-4,4-difluoro-3,5-dimethylpiperidin-1-yl)-5-methoxypyrimidin-4-yl)amino)-7-methyl-1,2,3,4-tetrahydro-[1,4]oxazepino[2,3-c]quinolin-6(7H)-one] | > 2.5
